US20250319025A9, “COMPOSITIONS COMPRISING MODIFIED PHOSPHOLIPIDS AND USES THEREOF” (priority 2021, published 2025)
Values joined by “and” are separate entries in the source; they are usually repeats but may differ in a detail not shown here. Equal values may be shown once. Where a name gives a salt, the structure may show the parent alone. Read-outs that look alike come from different tables or passages of the source.

What was measured:
[1] = Phase transition temperature of acyl chain-modified phospholipids; assay type: physicochemical
[2] = In vitro cumulative drug release by dialysis at 37° C.; assay type: physicochemical
[3] = Drug loading of payloads in liposomes (thin-film hydration; quantitated after liposome disruption); assay type: physicochemical
physchem = conditions: pH 4
[4] = system: PC12 rat adrenal gland pheochromocytoma cells
[5] = pH 7.4
[6] = system: sciatic nerves and surrounding tissues; conditions: rat, in vivo
[7] = cited from earlier work
sciatic nerve [8] = conditions: rat, in vivo
sciatic nerve [9] = experiment: Motor nerve block, weight-bearing test; conditions: rat, in vivo
Procedure: Motor nerve block was assessed by a weight-bearing test to determine the motor strength of the rat's hind paw. The rat was positioned with one hind paw on a digital balance and was allowed to bear its own weight. The maximum weight that the rat could bear without the ankle touching the balance was recorded, and motor block was considered achieved when the motor strength was less than half maximal. Measurements were repeated three times at each time point and the median was used for further data analysis.
Duration of sensory block were calculated as the time required for thermal latency to return to 7 seconds (halfway between the baseline and maximal latencies). The duration of motor block was defined as the time it took for the weight-bearing to return to halfway between normal and maximal block.

[10] = first 24 h, Lipo-Ph versus Lipo
[11] = payload from aromatized liposomes, 37° C.
[12] = payload in aromatized liposomes containing Ph-DPPC (Lipo-Ph)

With “1-palmitoyl-2-(16-coumarin)palmitoyl-sn-glycero-3-phosphocholine [CM-DPPC]” the “phase transition temperature (Tm)” value [1] was 66.1 °C.
With `CCCCN1CCCCC1C(=O)Nc1c(C)cccc1C` (stereo not shown) [Bup, bupivacaine hydrochloride] the “Cumulative release in first 24 h, Lipo” value [2] was 70.7 ± 1.9%, the Decrease in release [2, 10] was 47.7% and the “Cumulative release in first 24 h, Lipo-Ph” value (shortened to “Cumulative release … Lipo-Ph”) [2, 11] was 37.0 ± 2.7%. The “Drug loading, Lipo” value [3] was 3.5 ± 0.7%, the Increase in loading ([3]; Lipo-Ph versus Lipo) was 60.0% and the “Drug loading, Lipo-Ph” value [3, 12] was 5.6 ± 0.8%. The logP (physchem) was -0.27.
For `COc1cccc2c1C(=O)c1c(O)c3c(c(O)c1C2=O)C[C@@](O)(C(=O)CO)C[C@@H]3O[C@H]1C[C@H](N)[C@H](O)[C@H](C)O1` [Dox, doxorubicin hydrochloride], the “Cumulative release in first 24 h, Lipo” value [2] was 26.8 ± 1.1%, the Decrease in release [2, 10] was 34.3% and the “Cumulative release … Lipo-Ph” value [2, 11] was 17.6 ± 1.0%. For the same molecule, the “Drug loading, Lipo” value [3] was 0.8 ± 0.1%, the Increase in loading ([3]; Lipo-Ph versus Lipo) was 30.4% and the “Drug loading, Lipo-Ph” value [3, 12] was 1.1 ± 0.1%. It also gave a logP (physchem) of -0.22.
With `CCCCCCCCCCCCCCCC(=O)OC[C@H](COP(=O)([O-])OCC[N+](C)(C)C)OC(=O)CCCCCCCCCCCCCCCOc1ccccc1` [Ph-DPPC, 1-palmitoyl-2-(16-phenoxy)palmitoyl-sn-glycero-3-phosphocholine] the “phase transition temperature (Tm)” value [1] was 47.4 °C.
In the case of `Oc1ccccc1` [Phenol, phenol], the “cytotoxicity, C2C12” value (C2C12 mouse myoblasts) was “intrinsically toxic” and the “cytotoxicity, PC12” value [4] was “intrinsically toxic”.
With `CCN(CC)c1ccc2c(-c3ccc(S(=O)(=O)O)cc3S(=O)(=O)[O-])c3ccc(=[N+](CC)CC)cc-3oc2c1` [SRho, sulforhodamine B] the “Cumulative release in first 24 h, Lipo” value [2] was 12.2 ± 0.5%, the Decrease in release [2, 10] was 51.6% and the “Cumulative release … Lipo-Ph” value [2, 11] was 5.9 ± 0.7%. For the same molecule, the “time within which free dye was released” value ([2]; unencapsulated SRho in the release set-up) was at most 6 h, the “Drug loading, Lipo” value [3] was 2.6 ± 0.3% and the Increase in loading ([3]; Lipo-Ph versus Lipo) was 19.2%. The “Drug loading, Lipo-Ph” value [3, 12] was 3.1 ± 0.2% and the “log P (octanol-water partition coefficient)” value [5] was −0.53.
In the case of tetrodotoxin [TTX], the “Cumulative release in first 24 h, Lipo” value [2] was 17.1 ± 0.3%, the “Cumulative release … Lipo-Ph” value [2] was 11.3 ± 0.4% and the Decrease in release [2] was 34.0%. The “TTX released after 8 hours” value [2] was “More than 95%”, the “Drug loading, Lipo” value [3] was 0.11 ± 0.01% and the “Drug loading, Lipo-Ph” value [3] was 0.13 ± 0.01%. The Increase in loading [3] was 25.5%, the “Inflammation Scores, Day 4” value [6] was 0 and the “Inflammation Scores, Day 14” value [6] was 0 (0-0). The “Myotoxicity Scores, Day 4” value [6] was 0, the “Myotoxicity Scores, Day 14” value [6] was 0 and the “log P (octanol-water partition coefficient)” value [5] was 0.13. The “Log P” value [7] was −6.2, the “Duration of nerve block” value (sciatic nerve [8]) was 2.5 ± 0.6 h and 2.5 h and the nerve block (sciatic nerve [8]) was “did not induce detectable nerve block”. The sensory nerve block (sciatic nerve [8]) was “no detectable block” and the “difference between the duration of sensory and motor nerve block” value (sciatic nerve [9]) was “no statistically significant difference”.
